Read-outs that look alike come from different tables or passages of the source.
How the values were obtained:
[1] = biological target: T1, β adrenergic receptors (β1) (Canis lupus familiaris, UniProt P79148); assay: Antagonism of the effects of isoprenaline, tachycardia (β1), anaesthetized dog, IV; format: in vivo; details: for cardioselectivity β1 - β2 / ED50: dog; for cardioselectivity β1 - β2: isoprenaline antagonism, β1 versus β2; for ED50: read-out: ID50 ISOPRENALINE β1; for cardioselective in vivo (selectively inhibit the cardiac receptors): test with isoprenaline
T1 construct: The dog is anaesthetized using sodium pentobarbital; from tissue; host or cells: whole anaesthetized dog (heart)

β1 receptor = biological target: T2, β1 receptor (Canis lupus familiaris, UniProt P79148); assay: Displacement of 3H dihydroalprenolol, plasmic membranes of hearts of dogs; format: binding, dog
T2 construct: plasmic membranes of hearts of dogs (β1 receptor); from tissue; host or cells: dog heart plasma membranes
Description: (§1) The binding tests are effected on suspensions of plasmic membranes coming from various organs. The suspensions of membranes are placed in incubation with the tritiated ligand and various concentrations of products to be tested. After incubation, each test is filtered on GFB(Whatman) filter, the filters are dried and introduced into counting flasks. The measurement of the radioactivity is assessed by scintillation in a liquid medium.
(§2) The tests were made on plasmic membranes of hearts of dogs (β1 receptor) and lungs of rats (β2 receptors), in the presence of ^3 H dihydroalprenolol 4×10^-9 M.

α2 receptor = biological target: T3, α2 receptor (Rattus norvegicus, UniProt P22909); assay: Displacement of 3H clonidine, plasmic membranes of rat brains; format: binding; details: for affinity for the receptor with clonidine (α2): in vitro
T3 construct: plasmic membranes of rat brains; from tissue; host or cells: rat brain plasma membranes
T3 sequence (P22909 1-465): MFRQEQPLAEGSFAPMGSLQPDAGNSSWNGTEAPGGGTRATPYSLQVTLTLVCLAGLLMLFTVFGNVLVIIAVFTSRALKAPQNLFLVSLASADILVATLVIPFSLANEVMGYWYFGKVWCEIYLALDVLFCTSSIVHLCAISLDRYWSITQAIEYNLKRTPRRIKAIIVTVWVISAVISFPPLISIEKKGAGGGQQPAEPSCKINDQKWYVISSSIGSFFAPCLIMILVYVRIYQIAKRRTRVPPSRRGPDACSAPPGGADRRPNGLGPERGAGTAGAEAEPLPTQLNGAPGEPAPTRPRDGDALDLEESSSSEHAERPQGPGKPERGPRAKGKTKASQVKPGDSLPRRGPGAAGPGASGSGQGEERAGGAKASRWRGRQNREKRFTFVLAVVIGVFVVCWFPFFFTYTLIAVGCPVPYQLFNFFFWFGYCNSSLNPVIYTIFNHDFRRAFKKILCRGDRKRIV
Description: as §1
(§3) The tests were made on plasmic membranes of rat brains, in the presence of ^3 H clonidine 1.2×10^-9 M (α2 receptor) and of ^3 H WB4101 (N-[2-(2.6dimethoxyphenoxy)ethyl]1.4benzodioxane-2-methylamine), 0.2×10^-9 M (α1 receptor).

α adrenergic receptors = assay: Antagonism of the effects of noradrenaline (pressure response), anaesthetized dog, IV; format: in vivo; details: 50% inhibition of pressure response to noradrenaline
Description: (§4) The dog is anaesthetized using sodium pentobarbital, administered by the IV route at a dose of 30 mg/kg. A cannula placed in the saphenous vein allows the intra-venous injections of the products. The animal is submitted to intubation and is allowed to breathe spontaneously.
(§5) The cardiac frequency and the systemic arterial pressure are studied and the variations of these parameters are observed after intra-venous injection of the product to be tested. Each product is tested with increasing doses.
The antagonism of the products with respect to the vascular effects provoked by the IV administration of noradrenaline on the α adrenergic receptors has been sought. The results presented in Table III are expressed in ID50 : it is the dose (mg/kg) which provokes the inhibition by 50% of the pressure response due to the IV administration of noradrenaline.

[2] = biological target: T4, β adrenergic receptors (β2) (Canis lupus familiaris, UniProt P54833); assay: Antagonism of the effects of isoprenaline, hypotension (β2), anaesthetized dog, IV; format: in vivo; details: read-out: ID50 ISOPRENALINE β2
T4 construct: The dog is anaesthetized using sodium pentobarbital; from tissue; host or cells: whole anaesthetized dog (vasculature)
Description: as §4, §5
The antagonism of the products with respect to the β stimulant cardio-vascular effects of isoprenaline on the β adrenergic receptors has been sought. […] The last column indicates the cardioselectivity (β1 >β2) or a low cardioselectivity β1 ≥β2, or no cardioselectivity β1 <β2 and β1 =β2.

[3] = Cardiac frequency and arterial pressure in the anaesthetized dog after intravenous injection; format: in vivo; details: i.v. route, anaesthetised dog
Description: as §4, §5

platelet aggregation = assay: Anti-aggregating activity, BORN technique, plasma rich in platelets, ADP; format: cell-based, human; details: for IC50: Homo sapiens, Platelet, read-out: concentration for inhibiting by 50% the maximum rate of aggregation; for inhibition of the platelet response with respect to the ADP: human platelet-rich plasma
Description: The anti-aggregating activity of the CM 7743, 7744, 7824, 7854, 7859 and 7874 has been studied according to the BORN technique on plasma rich in platelets of human origin. ADP has been used as indicator of platelet aggregation. […] The required concentration for inhibiting by 50% the maximum rate of aggregation varies from 45 to 100 μM.

β2 receptors = biological target: T5, β2 receptors (Rattus norvegicus, UniProt P10608); assay: Displacement of 3H dihydroalprenolol, plasmic membranes of lungs of rats; format: binding
T5 construct: lungs of rats (β2 receptors); from tissue; host or cells: rat lung plasma membranes
Description: as §1, §2

α1 receptor = assay: Displacement of 3H WB 4101, plasmic membranes of rat brains; format: binding; details: for affinity for the receptor with WB 4101 (α1): in vitro; for EC50: read-out: EC50 of DISPLACEMENT of 3H WB 4101, rat brain membranes, 3H WB4101 0.2×10^-9 M
Description: as §1, §3

[4] = IV, 50% inhibition of isoprenaline hypotension

T2 sequence (P79148 whole entry): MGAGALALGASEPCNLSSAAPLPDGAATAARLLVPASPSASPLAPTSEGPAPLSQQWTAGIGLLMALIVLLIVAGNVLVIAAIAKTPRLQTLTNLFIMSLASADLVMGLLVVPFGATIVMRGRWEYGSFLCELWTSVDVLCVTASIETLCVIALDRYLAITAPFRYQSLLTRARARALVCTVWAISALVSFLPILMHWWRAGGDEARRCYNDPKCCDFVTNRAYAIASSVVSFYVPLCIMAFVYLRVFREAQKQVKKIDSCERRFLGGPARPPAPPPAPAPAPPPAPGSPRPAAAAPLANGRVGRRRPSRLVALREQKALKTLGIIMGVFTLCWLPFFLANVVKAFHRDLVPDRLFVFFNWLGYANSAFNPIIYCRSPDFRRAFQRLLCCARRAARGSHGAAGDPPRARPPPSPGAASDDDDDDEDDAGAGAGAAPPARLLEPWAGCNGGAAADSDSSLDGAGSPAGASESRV
T1 sequence (P79148 whole entry): as above
T5 sequence (P10608 whole entry): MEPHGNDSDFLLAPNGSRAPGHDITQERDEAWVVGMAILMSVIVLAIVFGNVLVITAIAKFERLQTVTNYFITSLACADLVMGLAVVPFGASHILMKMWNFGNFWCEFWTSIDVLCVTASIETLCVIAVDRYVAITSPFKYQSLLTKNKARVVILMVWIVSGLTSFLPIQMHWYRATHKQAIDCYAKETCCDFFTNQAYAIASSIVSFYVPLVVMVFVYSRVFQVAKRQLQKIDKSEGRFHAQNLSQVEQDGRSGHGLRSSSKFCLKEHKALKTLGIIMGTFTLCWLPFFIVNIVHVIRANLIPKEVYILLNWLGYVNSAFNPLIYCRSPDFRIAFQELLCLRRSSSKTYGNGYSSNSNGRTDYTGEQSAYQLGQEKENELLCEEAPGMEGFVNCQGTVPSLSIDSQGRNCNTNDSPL
T4 sequence (P54833 whole entry): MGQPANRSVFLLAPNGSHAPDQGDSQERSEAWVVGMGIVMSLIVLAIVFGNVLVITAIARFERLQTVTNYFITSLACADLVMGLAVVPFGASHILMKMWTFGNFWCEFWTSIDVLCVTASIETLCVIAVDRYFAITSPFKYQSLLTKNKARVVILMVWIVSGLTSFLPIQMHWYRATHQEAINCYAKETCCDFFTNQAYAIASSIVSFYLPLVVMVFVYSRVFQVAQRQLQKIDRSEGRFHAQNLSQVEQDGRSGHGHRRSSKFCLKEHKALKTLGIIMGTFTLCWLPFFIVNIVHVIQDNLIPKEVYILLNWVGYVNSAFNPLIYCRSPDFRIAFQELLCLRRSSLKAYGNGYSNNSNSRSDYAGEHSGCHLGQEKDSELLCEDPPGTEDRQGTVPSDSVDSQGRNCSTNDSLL

| ED50 ([1]; IV, 50% inhibition of isoprenaline tachycardia) [mg/kg] | EC50 (β1 receptor; read-out: EC50 of DISPLACEMENT of 3H DIHYDROALPRENOLOL, Heart (β1), dog heart membranes, 3H dihydroalprenolol 4×10^-9 M) [nM] | EC50 (α2 receptor; read-out: EC50 of DISPLACEMENT of 3H CLONIDINE, rat brain membranes, 3H clonidine 1.2×10^-9 M) [nM] | EC50 (β2 receptors; read-out: EC50 of DISPLACEMENT of 3H DIHYDROALPRENOLOL, Lung (β2), rat lung membranes, 3H dihydroalprenolol 4×10^-9 M) [nM] | SMILES | cardioselectivity β1 - β2 ([1]; IV) | ED50 ([1]; iv) [mg/kg] | EC50 (β1 receptor) [nM] | affinity for the receptor with clonidine (α2) (α2 receptor) | ID50 NORADRENALINE α (α adrenergic receptors) [mg/kg] | ED50 ([2]; iv) [mg/kg] | reduction in the peripheral arterial pressure [3] | IC50 (platelet aggregation) [nM] | inhibition of the platelet response with respect to the ADP (platelet aggregation) | EC50 (β2 receptors) [nM] | affinity for the receptor with WB 4101 (α1) (α1 receptor) | EC50 (α1 receptor) [nM] | cardioselective in vivo (selectively inhibit the cardiac receptors) [1] | EC50 (α2 receptor) [nM] | ED50 [2, 4] [mg/kg] |
| --- | --- | --- | --- | --- | --- | --- | --- | --- | --- | --- | --- | --- | --- | --- | --- | --- | --- | --- | --- |
| – | – | – | – | CC(Cc1c[nH]c2ccccc12)NCC(O)COc1ccccc1C#N (stereo not shown) [compound 7824] | β1 ≥ β2 (low cardioselectivity β1 ≥β2) | 0.3 | 13.5 | no affinity | 1 | ≥ 0.3 | reduction in the peripheral arterial pressure | 45000 to 100000 | inhibited the platelet response | 10 | have an affinity | 110 | – | – | – |
| – | – | – | – | Cc1ccccc1OCC(O)CNC(C)Cc1c[nH]c2ccccc12 (stereo not shown) [compound 7744] | β1 > β2 (cardioselectivity (β1 >β2)) | 0.1 | 31 | – | 0.1 to 1 | – | reduction in the peripheral arterial pressure | 45000 to 100000 | inhibited the platelet response | 52 | have an affinity | 500 | cardioselective in vivo | 20.5 | ≥ 0.3 |
| – | – | – | – | CC(Cc1c[nH]c2ccccc12)NCC(O)COc1ccccc1[N+](=O)[O-] (stereo not shown) [compound 7808] | β1 > β2 (cardioselectivity (β1 >β2)) | 0.3 | 28.5 | no affinity | 0.3 | 1 | reduction in the peripheral arterial pressure | – | – | 24 | have an affinity | 320 | cardioselective in vivo | 25 | – |
| 0.3 to 1 | 215 | 41 | 155 | Cc1ccccc1OCC(O)CNC(CO)Cc1c[nH]c2ccccc12 (racemic) [compound 7906] | β1 ≥ β2 (low cardioselectivity β1 ≥β2) | – | – | – | > 3 | – | reduction in the peripheral arterial pressure | – | – | – | – | 1.1 | – | – | 1 |
| – | – | – | – | CC(Cc1c[nH]c2ccccc12)NCC(O)COc1cccc2[nH]ccc12 (stereo not shown) [compound 7874] | β1 ≥ β2 (low cardioselectivity β1 ≥β2) | 0.01 | 4 | – | > 0.03 | – | reduction in the peripheral arterial pressure | 45000 to 100000 | inhibited the platelet response | 8.2 | have an affinity | 215 | – | 20 | 0.01 to 0.03 |

Reference: patent publication US4404217A, “3-Indolyl alkylene amino propanols and cardiovascular compositions thereof” (C. M. Industries, priority 1979, dated 1983)
